Source: patent US20090142363A1, “CYTOTOXIC T-CELL EPITOPE PEPTIDE AND USE THEREOF” (priority 2005, published 2009)
No end group written: not given here.

Assays:
Type in all cases: cell-based, human
[1] = tested on: CTLs with target cells expressing HLA-A*24 molecules; experiment: Confirmation of CTLs by ELISPOT assay (IFNγ spots); settings: FIG. 4
Description: A commercially available ELISPOT assay kit (for example, MABTECH Co.) may be purchased, and the assay can be performed according to the manufacturer's protocol. Alternatively, the assay may also be carried out by the following procedure. 96-well MultiScreen-HA plates (Millipore Co.) were coated with an anti-IFNγ monoclonal antibody (R&D Systems Co.) at 4° C. for overnight. Each well was washed with PBS. Target cells were plated into each well. Any cells expressing HLA-A*24 molecules on their surface can be used as the target cells. For example, T2-A24, a cultured cell which a gene of HLA-A*24 molecule is introduced into a 174CEM.T2 cell, can be used. Alternatively, EBV-infected LCLs expressing HLA-A*24 molecules on their surface can be used as the target cells. These target cells were added into each well with a candidate peptide for adenovirus-specific CTL epitopes or a negative control (HIV) peptide. The mixtures were allowed to stand at room temperature for 30 minutes. Then, an adequate number of CTLs were added, and the mixtures were cultured in a 5% CO2 incubator at 37° C. for 20 hours. CTLs that responded to the candidate epitope peptide secreted IFNγ during this culture period, and the IFNγ bound to the anti-IFNγ monoclonal antibody that was coated on the plates. After culturing was completed, the plates were washed with PBS containing 0.05% Tween-20. Then, an anti-IFNγ polyclonal antibody (Genzyme Co.) and peroxidase-labeled goat anti-rabbit IgG serum were allowed to react in this order at room temperature for 90 minutes each. Furthermore, 3-amino-9-ethylcarbasole (Sigma), a peroxidase substrate, and 0.1M sodium acetate buffer (pH 5.0) containing 0.015% H2O2 was added to each well, and the plates were incubated at room temperature for 40 minutes to visualize the IFNγ spots. The spots were counted under a stereomicroscope.
The spots were counted under a stereomicroscope, and were plotted on a graph.

[2] = tested on: PBMCs of healthy adults reactive to the anti-HLA-A*24 antibody; experiment: Induction of specific CTLs from PBMCs, method for quantifying cells producing intracellular IFNγ; set-up: key to specific CTL induction, cytokine quantification method: ∘: “open circle” indicates that the use of a candidate peptide enabled specific CTLs to be induced; x: “cross” indicates that specific CTLs was unable to be induced; settings: for peptide-specific cytokine production in PBMCs derived from ten people with HLA-A*24 molecule: summary of Table 2; for CD8-positive, IFNγ-positive (producing) cells in UR: restimulation with the same peptide as used in the induction, % in PBMCs; for number of persons with peptide-specific IFNγ production / CTL induction: ten persons tested
Description: This induction method induces CTLs by adding peptides to culture media of PBMCs. Peptides are presented on antigen-presenting cells present among PBMCs, such as dendritic cells, B cells, macrophages, and certain types of T cells, whereby CTL precursor cells in PBMCs are stimulated to proliferate.
Peripheral blood collected from healthy adults that were reactive to the anti-HLA-A*24 antibody was centrifuged at 3,000 rpm for 5 to 10 minutes. The resulting supernatant plasma was collected. The non-plasma portion was processed according to a conventional method to isolate PBMCs. The characteristic of the present method is the addition of several % of plasma to an induction medium. In the present invention, a favorable result was obtained by adding 5% plasma. The medium is prepared by adding appropriate additives and antibiotics to a medium commonly used for cell culture. The CTL induction medium used in the present invention was RPMI1640 Hepes modify (Sigam) supplemented with 2-mercapotethanol, L-glutamine, and the antibiotics streptomycin and penicillin. In addition to these, insulin, transferrin, selenious acid, pyruvic acid, human serum albumin, solution of non-essential amino acids, and the like may be added. 1 to 3×10^6 PBMCs were suspended in 1 to 2.5 ml of the culture medium. A candidate peptide was added to the cells at a concentration of 1 to 20 μg/ml. The concentration of peptide can be altered depending on the solubility of the peptide. The peptide was added at 10 μg/ml. After two days, IL-2 was added at a final concentration of 20 to 100 U/ml. Round-bottomed culture dishes that allow the exchange of carbon dioxide gas are preferably used to co-culture PBMCs with peptides. In the context of the present invention, 14-ml round-bottomed polypropylene tubes (Becton Dikinson) or 96-well U-bottomed cell culture microtest plates (Becton Dikinson) were used. The adenovirus-specific CTLs were confirmed after about two and four weeks of culture. The cells were stimulated again with the peptide at 10 μg/ml after about two weeks of culture. When the induction of adenovirus-specific CTLs was confirmed, the cells were further stimulated with peptide-pulsed antigen-presenting cells to establish CTL lines.
Approximately 1/10 to all of the cells induced by the above-described method were transferred into 96-well U-bottomed cell culture microtest plates, and the peptide used for the induction was added thereto at a final concentration of 0.01 to 0.05 μg/ml. Then, an intracellular protein transport inhibitor (for example, brefeldin A, monensin, or such) was added, and the cells were cultured in a 5% CO2 incubator at 37° C. for 5 to 16 hours. After culture, the cells were washed, and phycoerythrin (PE)-labeled MHC-tetramer reagent and phycoerythrin-Cy5(PC5)-labeled CD8 antibody (Beckman Coulter) were added thereto. The resulting mixture was allowed to stand at room temperature for 15 to 30 minutes. After washing, the cells were fixed with 4% formaldehyde at 4° C. for 15 minutes and washed with an excess amount of washing solution. After membrane permeabilization treatment with 0.1% saponin, an FITC-labeled anti-IFNγ antibody (Beckman Coulter) was added, and reacted at room temperature for 15 to 30 minutes. After washing, the proportion of IFNγ-positive cells in T cells or MHC-tetramer reagent-positive cells was determined using a flow cytometer.
PBMCs derived from ten people with HLA-A*24 molecule were tested using 10 types of peptides. […] Thus, these six types of candidate epitope peptides serve as adenovirus-specific CTL epitope peptides. Since the adenovirus-specific CTL epitope peptides have the HLA-A*24-binding motif, they are likely to be HLA-A*2402-restricted epitope peptides, which are carried by 60% or more of the Japanese people. In the context of the results described above, MHC-tetramer reagents were synthesized using five types of epitope peptides, and their utility was tested.

[3] = tested on: CTL line induced by TYF (PBMCs from ID*24-8); experiment: Cross-reactivity of the TYF-induced CTL line to the subgroup C-specific CTL epitope; settings: PBMCs from ID*24-8 stimulated with TYF for 13 days
Description: As shown in FIG. 11-4, there are amino acid mutations at the fourth and sixth positions in TYF identified in the present invention as compared to the subgroup C-specific CTL epitopes. Thus, the cross-reactivity to subgroup C-specific CTL epitope ([…] (SEQ ID NO: 14); mutated amino acids are underlined) (Leen A M, Sili U, Vanin E F, Jewell A M, Xie W, Vignali D, Piedra P A, Brenner M K, Rooney C M. Conserved CTL epitopes on the adenovirus hexon protein expand subgroup cross-reactive and subgroup-specific CD8+ T cells. Blood. 104:2432-2440 (2004)) was examined using a CTL line induced by TYF.
PBMCs prepared from ID*24-8 were stimulated with TYF for 13 days, and then restimulated with TYF or […] (SEQ ID NO: 14) to examine whether the CTL line produces IFNγ.

[4] = tested on: peripheral blood / PBMCs / peptide-induced CTL lines of HLA-A*24 donors; experiment: Staining of peripheral blood, PBMCs or peptide-induced CTL lines with MHC-tetramer reagents
Description: MBL Co. where the present inventors are affiliated with has acquired exclusive patent licensing rights in Japan for MHC-tetramer reagents (U.S. Pat. No. 5,635,363; French Application No. FR9911133; and U.S. Pat. Nos. 5,723,584, 5,874,239, 5,932,433, and 6,265,552) from Beckman Coulter Co. Based on the patents, PE-labeled MHC-tetramer reagents were prepared using adenovirus-specific CTL epitope peptides and HLA-A*2402 molecules.
Adenovirus-specific CTLs quantification was carried out using MHC-tetramer reagents that was prepared using CTL epitope peptides of the present invention, with peripheral blood, PBMCs isolated from peripheral blood, CTL lines induced using CTL epitope peptides as samples. Examples of quantification using PE-labeled MHC-tetramer reagents are described below. Labelling dyes may be used in an appropriate combination depending on the type of flow cytometer to be used, and is not limited to the examples described below.
Ten μl of a PE-labeled MHC-tetramer reagent, 20 μl of an FITC-labeled antibody for T cell (for example, CD8, CD4, or CD3), and such were added to 200 μl of collected peripheral blood. A CD45 antibody labeled with PC5 or such may also be added to eliminate nonspecific fluorescence due to contaminated erythrocytes. After gentle mixing, the mixture was allowed to stand at room temperature for 30 minutes. OptiLyse B was added, and erythrolysis and fixation was carried out according to the manufacturer's protocol. Two ml of PBS was added, stirred, and the cells were centrifuged at 400×g for 5 minutes. After the supernatant was removed by aspiration, the cells were resuspended in 500 μl of PBS and analyzed using a flow cytometer within 24 hours.
Ten μl of a PE-labeled MHC-tetramer reagent, 20 μl of an FITC-labeled T cell surface antibody (for example, CD8, CD4, or CD3), and such were added to an appropriate amount of PBMCs (10^5 to 10^6 cells) or a CTL line induced by use of CTL epitope peptides. A CD45 antibody labeled with PC5 or such may also be added to eliminate nonspecific fluorescence due to contaminated erythrocytes. After gentle mixing, the cells were allowed to stand at room temperature for 30 minutes. Three ml of PBS was added, stirred, and the cells were centrifuged at 400×g for 5 minutes. After the supernatant was removed by aspiration, the cells were resuspended in 500 μl of PBS. When a CTL line is used, 7-AAD Viability Dye (Non-viable cell detection reagent; MBL Co.) may be added to eliminate nonspecific fluorescence caused by non-viable cells. The cells were analyzed using a flow cytometer within 24 hours.
The results of staining obtained using the five types of MHC-tetramer reagents used to prepare the peptide-induced CTL lines are shown in FIG. 5.

| Sequence | IFNγ spots in ELISPOT assay compared with the negative control (HIV) peptide [1] | specific CTL induction, cytokine quantification method ([2]; donor ID *24-1) | specific CTL induction, cytokine quantification method ([2]; donor ID *24-2) | specific CTL induction, cytokine quantification method ([2]; donor ID *24-3) | specific CTL induction, cytokine quantification method ([2]; donor ID *24-5) | specific CTL induction, cytokine quantification method ([2]; donor ID *24-8) | specific CTL induction, cytokine quantification method ([2]; donor ID *24-10) | specific CTL induction, cytokine quantification method ([2]; donor ID *24-11) | specific CTL induction, cytokine quantification method ([2]; donor ID *24-12) | specific CTL induction, cytokine quantification method ([2]; donor ID *24-13) | specific CTL induction, cytokine quantification method ([2]; donor ID *24-14) | peptide-specific cytokine production in PBMCs derived from ten people with HLA-A*24 molecule [2] | CD8-positive, IFNγ-positive (producing) cells in UR ([2]; donor *24-12) [%] | number of persons with peptide-specific IFNγ production / CTL induction [2] | other results |
| --- | --- | --- | --- | --- | --- | --- | --- | --- | --- | --- | --- | --- | --- | --- | --- |
| LYANSAHAL | IFNγ spots were observed | x | x | ∘ | x | ∘ | x | x | x | x | x | induce cytokine production in a peptide-specific manner |  |  | specific CTL induction confirmed by CD8-positive, IFNγ-positive cells versus HIV peptide ([2]; donor ID*24-8, FIG. 3a-d): induced specific CTLs |
| LYSNVALYL | IFNγ spots were observed | x | x | x | x | x | x | x | ∘ | ∘ | x | induce cytokine production in a peptide-specific manner | 2.95 | two of the ten persons | specific CTL induction confirmed by CD8-positive, IFNγ-positive cells versus HIV peptide ([2]; donor ID*24-12, FIG. 3e-h): specific CTL induction was confirmed |
| TYFSLNNKF (An artificially synthesized epitope peptide sequence) [reference compound] |  |  |  |  |  |  |  |  |  |  |  |  |  |  | IFNγ production of the CTL line induced by TYF on restimulation with the named peptide [3]: did not produce IFNγ; CD8-positive and TYF-Tet-positive cells ([3]; restimulated with the named peptide): 1.97% |
| TYPVLEEMF [EBV BRLF1, reference compound] |  | ∘ | ∘ | ∘ | x | ∘ | ∘ | ∘ | ∘ | ∘ | ∘ |  | 9.57 | nine of ten persons | specific CTLs (CD8-positive MHC-tetramer reagent-positive cells, UR) ([4]; donor ID*24-2, 13 days stimulation with the peptide, then HIV peptide added, % of whole viable cells): 13.0%; positive rate: CD8-positive, MHC-tetramer reagent-positive cells to viable cells ([4]; donor ID*24-8, PBMCs cultured with the epitope peptide for 10 days (day 10)): 15.6%; positive rate: CD8-positive, MHC-tetramer reagent-positive cells to viable cells ([4]; donor ID*24-8, immediately after blood collection (day 0)): 0.03%; increase of the positive rate from day 0 to day 10 ([4]; donor ID*24-8, ten days of culture with the peptide): about 520 times; CD8-positive, IFNγ-positive (producing) cells in UR ([2]; donor *24-8): 24.9% |
